Measurements reported in PubChem BioAssay AID1963868 (Molecular Pharmacology Branch, DTP, NCI, 2024).

System: KRAS PDC tumor spheroids (HUVEC+MSC), viability
Experiment: Anticancer human tumor 254851-301-R-J1-PDC patient-derived colon carcinoma cell line growth inhibition [KRAS2]
Settings: for viability, T/C: stronger effect = lower value; active = viability on the fitted dose curve at most 10% of control; inactive = the rest
Text: Multicellular complex tumor spheroid response to RAS pathway inhibitors in combination with a targeted agents in patient-derived cell lines with oncogenic KRAS variants from multiple cancer types
A high-throughput screen of multi-cell type tumor spheroids was designed to identify active combinations of targeted small molecules and KRAS pathway inhibitors. Complex spheroids include a stromal component modeled by human endothelial cells (HUVEC) and fibroblasts modeled by human mesenchymal stem cells (MSCs). The concentration ranges selected for each drug and investigational agent were based upon clinically achievable concentrations if the clinical Cmax of the agent was known.
Compounds. The drugs and investigational agents: BI-3406 (NSC825286), BAY-293 (NSC824723), batoprotafib (TNO155; NSC825523), sotorasib (AMG 510; NSC818433), MRTX1257 (NSC819558), elimusertib (BAY 1895344; NSC800525), molibresib (GSK525762; NSC774829), temuterkib (LY3214996; NSC803410), venetoclax (NSC766270), alisertib (NSC759677), olaparib (NSC753686), talazoparib (NSC767125), erdafitinib (NSC781556), ipatasertib (NSC767898), cabozantinib (NSC761068), nintedanib (NSC756659), abemaciclib (NSC768073), docetaxel (NSC628503), trametinib (NSC758246), and sapanisertib (NSC764658) were obtained from the National Cancer Institute (NCI) Developmental Therapeutics Program Chemical Repository. The FDA-approved anticancer drug set is available from the Developmental Therapeutics Program. […] The stock solutions were prepared in dimethyl sulfoxide (DMSO, Sigma-Aldrich, St. Louis, MO, cat. D2650) at 800-fold the tested concentration and stored at -70 degrees C prior to their use. All drugs and investigational agents were tested over a range starting from a high concentration at or near the clinical Cmax and decreasing in half-log increments. If the clinical Cmax for an agent had not been determined, the highest concentration tested was 10 microM.
Cell Culture. All cells were maintained in an incubator at 37 degrees C and 5% CO2 with 95% humidity. The PDC lines were cultured according to standard operating procedures established by the NCI PDMR (https://pdmr.cancer.gov/sops/default.htm). Briefly, all PDCs were thawed and cultured in Matrigel-coated flasks prepared with a working solution of 1X Ham's F-12 nutrient mix, without supplementation (Invitrogen, Waltham, MA, cat. 11765054), 100 U/mL penicillin-streptomycin (Invitrogen, cat. 15140122), and 2.5% Matrigel (Corning Inc., Corning, NY, cat. 354248) for the first three passages. All PDCs were cultured in complete DMEM/F-12 media containing advanced DMEM/F-12 (Invitrogen, cat. 12634028), 4.9% defined fetal bovine serum, heat inactivated (HyClone Laboratories Inc., Logan, UT, cat. SH30070.03HI), 389 ng/mL hydrocortisone (Sigma-Aldrich, cat. H4001), 9.7 ng/mL human EGF recombinant protein (Invitrogen, cat. PHG0313), 23.4 microg/mL adenine (Sigma-Aldrich, cat. A2786), 97.3 U/mL penicillin-streptomycin (Invitrogen, cat. 15140122), 1.9 mM L-glutamine (Invitrogen, cat. 25030081), and 9.7 microM Y-27632 dihydrochloride (Tocris Bioscience, Bristol, United Kingdom, cat. 1254). The PDCs were cultured in complete DMEM/F12 media without 9.7 microM Y-27632 dihydrochloride for at least two passages prior to the screen. The established cell line HOP-62 was cultured in RPMI 1640 medium, HEPES (Invitrogen, cat. 22400105) with 10% defined fetal bovine serum (HyClone Laboratories Inc., cat. SH30070.03) and 2 mM L-glutamine (Invitrogen, cat. 25030081). The pooled donor HUVEC were cultured in endothelial cell growth medium 2 (PromoCell, Heidelberg, Germany, cat. C-22011) and the hMSC were cultured in mesenchymal stem cell growth medium 2 (PromoCell, cat. C-28009). For all experiments, HUVEC and hMSC were used at passages </=5, while the malignant cell lines were used at passages </=15. […]

[1] = curve of first compound, second compound 0.1 µM
[2] = curve of first compound, second compound 0.316 µM
[3] = curve of first compound, second compound 1 µM
[4] = curve of first compound, second compound 3.16 µM
[5] = curve of first compound, second compound 10 µM
[6] = second compound 0.1 µM, first compound 0.0316 µM
[7] = second compound 0.1 µM, first compound 0.1 µM
[8] = second compound 0.1 µM, first compound 0.316 µM
[9] = second compound 0.1 µM, first compound 1 µM
[10] = second compound 0.316 µM, first compound 0.0316 µM
[11] = second compound 0.316 µM, first compound 0.1 µM
[12] = second compound 0.316 µM, first compound 0.316 µM
[13] = second compound 0.316 µM, first compound 1 µM
[14] = second compound 1 µM, first compound 0.0316 µM
[15] = second compound 1 µM, first compound 0.1 µM
[16] = second compound 1 µM, first compound 0.316 µM
[17] = second compound 1 µM, first compound 1 µM
[18] = second compound 3.16 µM, first compound 0.0316 µM
[19] = second compound 3.16 µM, first compound 0.1 µM
[20] = second compound 3.16 µM, first compound 0.316 µM
[21] = second compound 3.16 µM, first compound 1 µM
[22] = second compound 10 µM, first compound 0.0316 µM
[23] = second compound 10 µM, first compound 0.1 µM
[24] = second compound 10 µM, first compound 0.316 µM
[25] = second compound 10 µM, first compound 1 µM
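Note: spheroids exposed to compounds for seven days before readout.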
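Throughout, for viability, T/C: 100% = DMSO vehicle control luminescence of the spheroids.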

CCN1CCN(Cc2ccc(Nc3ncc(F)c(-c4cc(F)c5nc(C)n(C(C)C)c5c4)n3)nc2)CC1 + COc1cc2nc(C)nc(NC(C)c3cc(N)cc(C(F)(F)F)c3)c2cc1OC1CCOC1
578 nM: IC50 [2]
573 nM: IC50 [1]
active: viability, T/C [25] 7.16%
549 nM: IC50 [3]
inactive: viability, T/C (second compound 0.1 µM, first compound 0.00316 µM) 97.6% | viability, T/C (second compound 0.1 µM, first compound 0.01 µM) 98.1% | viability, T/C [6] 96% | viability, T/C [7] 80.6% | viability, T/C [8] 66.2% | viability, T/C [9] 35.7% | viability, T/C (second compound 0.316 µM, first compound 0.00316 µM) 93.2% | viability, T/C (second compound 0.316 µM, first compound 0.01 µM) 92.6% | viability, T/C [10] 92.2% | viability, T/C [11] 72.2% | viability, T/C [12] 67.9% | viability, T/C [13] 36.2% | viability, T/C (second compound 1 µM, first compound 0.00316 µM) 90.3% | viability, T/C (second compound 1 µM, first compound 0.01 µM) 88.9% | viability, T/C [14] 86.7% | viability, T/C [15] 76.8% | viability, T/C [16] 63.1% | viability, T/C [17] 36.3% | viability, T/C (second compound 3.16 µM, first compound 0.00316 µM) 63.5% | viability, T/C (second compound 3.16 µM, first compound 0.01 µM) 70% | viability, T/C [18] 55.3% | viability, T/C [19] 49.9% | viability, T/C [20] 43.3% | viability, T/C [21] 26% | viability, T/C (second compound 10 µM, first compound 0.00316 µM) 83.2% | viability, T/C (second compound 10 µM, first compound 0.01 µM) 74.5% | viability, T/C [22] 69.7% | viability, T/C [23] 39.1% | viability, T/C [24] 17.8%
120 nM: IC50 [4]
66.6 nM: IC50 [5]

CC1(C)CCC(CN2CCN(c3ccc(C(=O)NS(=O)(=O)c4ccc(NCC5CCOCC5)c([N+](=O)[O-])c4)c(Oc4cnc5[nH]ccc5c4)c3)CC2)=C(c2ccc(Cl)cc2)C1
> 10000 nM: IC50 (curve of compound)
inactive: viability, T/C (compound 0.0316 µM) 103% [middle of 5 runs] | viability, T/C (compound 0.1 µM) 102% [middle of 5 runs] | viability, T/C (compound 0.316 µM) 101% [middle of 5 runs] | viability, T/C (compound 1 µM) 102% [middle of 5 runs] | viability, T/C (compound 3.16 µM) 96.3% [middle of 5 runs] | viability, T/C (compound 10 µM) 92.8% [middle of 5 runs]

CNCc1ccccc1-c1csc(C(C)Nc2nc(C)nc3cc(OC)c(OC)cc23)c1 (stereo not drawn)
0.17% [middle of 15 runs]: viability, T/C (compound 10 µM)
4.58 µM [middle of 5 runs]: IC50 (compound alone, run of 07/19/2021)
2.42 µM [middle of 6 runs]: IC50 (compound alone, run of 07/26/2021)
inactive: viability, T/C (compound 0.1 µM) 95.8% [middle of 17 runs] | viability, T/C (compound 0.316 µM) 99.9% [middle of 16 runs]
4.73 µM [middle of 6 runs]: IC50 (compound alone, run of 07/12/2021)

CC1(C)CCC(CN2CCN(c3ccc(C(=O)NS(=O)(=O)c4ccc(NCC5CCOCC5)c([N+](=O)[O-])c4)c(Oc4cnc5[nH]ccc5c4)c3)CC2)=C(c2ccc(Cl)cc2)C1 + CNCc1ccccc1-c1csc(C(C)Nc2nc(C)nc3cc(OC)c(OC)cc23)c1
active: viability, T/C (second compound 3.16 µM, first compound 3.16 µM) 1.17% | viability, T/C (second compound 3.16 µM, first compound 10 µM) 0.61% | viability, T/C [22] 0.17% | viability, T/C [23] 0.2% | viability, T/C [24] 0.17% | viability, T/C [25] 0.15% | viability, T/C (second compound 10 µM, first compound 3.16 µM) 0.12% | viability, T/C (second compound 10 µM, first compound 10 µM) 0.17%
3120 nM: IC50 [3]
inactive: viability, T/C [6] 100% | viability, T/C [7] 104% | viability, T/C [8] 100% | viability, T/C [9] 94.8% | viability, T/C (second compound 0.1 µM, first compound 3.16 µM) 94% | viability, T/C (second compound 0.1 µM, first compound 10 µM) 86% | viability, T/C [10] 91.9% | viability, T/C [11] 102% | viability, T/C [12] 99.7% | viability, T/C [13] 100% | viability, T/C (second compound 0.316 µM, first compound 3.16 µM) 87.7% | viability, T/C (second compound 0.316 µM, first compound 10 µM) 81.2% | viability, T/C [14] 93.3% | viability, T/C [15] 102% | viability, T/C [16] 92.9% | viability, T/C [17] 83.2% | viability, T/C (second compound 1 µM, first compound 3.16 µM) 49.6% | viability, T/C (second compound 1 µM, first compound 10 µM) 16.4% | viability, T/C [18] 80.4% | viability, T/C [19] 75.1% | viability, T/C [20] 71.6% | viability, T/C [21] 55%
1110 nM: IC50 [4]
> 10000 nM: IC50 [1] | IC50 [2]
< 31.6 nM: IC50 [5]
